According to article PMC6887851, “A Chemical-Intervention Strategy To Circumvent Peptide Hydrolysis by D-Stereoselective Peptidases” (Journal of Medicinal Chemistry, 2019):
Where a SMILES comes first, the peptide text is derived from it. [ ]: non-standard residue; d: D form. The star is where a group is joined. dDab = NCC[C@@H](N)C(=O)O; Octanoyl = CCCCCCCC(=O)*; Dab = NCC[C@H](N)C(=O)O

Columns and labels:
S. aureus NCTC 10788 = assay type: cell-based, Staphylococcus aureus; settings: NCTC 10788, 18 h
Procedure: (§1) Minimum inhibitory concentrations (MICs) were determined according to Clinical and Standards Laboratory Institute (CLSI) guidelines. Briefly, peptides were dissolved in Muller–Hinton broth (MHB) and serial dilutions made across a 96-well plate. Each well was inoculated with a suspension of the required bacterial strain to reach a final inoculum of 5 × 10^5 colony forming units per mL. The MIC was taken as the lowest concentration with no visible (cloudy suspension) growth after 18 h. The antimicrobial activity of each peptide was determined in duplicate in three independent experiments and found to be consistent across all experiments.

D-peptidase BogQ = experiment: Peptide hydrolysis assay with BogQ (UPLC–MS cleavage ratio); assay type: in vitro ADME; settings: BogQ 20 nM, substrate 50 μM, 25% PBS buffer pH 7.4, 37 °C, end-point after 1 h incubation, cleavage ratio by UPLC–MS, two independent experiments
Procedure: (§2) For expression of D-peptidases, the recombinant strain E. coli BL21 carrying pET-28a-bogQ or pET-24a-triFpep was cultured overnight at 37 °C in LB medium. This was diluted 1:100 into 100 mL of LB medium containing 50 μg/mL kanamycin and incubated at 37 °C until OD600 = 0.4–0.6 was reached. The culture was incubated at 15 °C for 30 min, and isopropyl β-D-1-thiogalactopyranoside was added to a final concentration of 200 μM.[17] The target proteins purified using Ni-NTA purification. The assay mixture (total volume 30 μL in 25% PBS buffer, pH 7.4), containing purified protein (BogQ, 20 nM or TriFpep 200 nM) and synthetic analogues (50 μM), was incubated for 1 h (BogQ) or 24 h (TriFpep) at 37 °C. Reactions were quenched with three volumes of cold methanol (90 μL) and centrifuged at 15 000 rpm for 10 min to precipitate protein. The supernatant (2 μL) was subjected to UPLC–MS analysis for the determination of cleavage ratios.[17] Assays were repeated in two independent experiments and results consistent across both.

[1] = tested on: TriFpep (peptidase domain of D-peptidase TriF); experiment: Peptide hydrolysis assay with TriFpep (UPLC–MS cleavage ratio); assay type: in vitro ADME, Paenibacillus polymyxa CICC10580; settings: Paenibacillus polymyxa; TriFpep 200 nM, substrate 50 μM, 25% PBS buffer pH 7.4, 37 °C, end-point after 24 h incubation, cleavage ratio by UPLC–MS, two independent experiments
Procedure: Having determined that N- or α-methylation of position 9 in the tridecaptins substantially improves resistance to hydrolysis by BogQ, we next tested if modifying the 6 position could overcome TriF hydrolysis at D-Trp5. TriFpep, the soluble periplasmic peptidase domain of TriF, was used in these assays. […] Oct-TriA2(6-Sar) (20) and Oct-TriA2(6-Aib) (21) were synthesized and found to be completely resistant to TriF and retain strong activity (3.13 μg/mL) against E. coli. […] Discovering that a simple substitution of Ser6 with Sar or Aib provides complete TriF resistance with negligible loss in activity is a welcome development.
as §2, with “Reactions were quenched with three volumes of cold methanol (90 μL) and centrifuged at 15 000 rpm for 10 min to precipitate protein. The supernatant (2 μL) was subjected to UPLC–MS analysis for the determination of cleavage ratios.[17] Assays were repeated in two independent experiments and results consistent across both.” left out

E. coli NCTC 12241 = assay type: cell-based, Escherichia coli; settings: NCTC 12241, 18 h
Procedure: as §1

| SMILES | MIC (μg/mL) Sa (S. aureus NCTC 10788) | metabolised at 1 h, 50 μM (D-peptidase BogQ) | metabolised at 24 h [1] | MIC (μg/mL) Ec (E. coli NCTC 12241) |
| --- | --- | --- | --- | --- |
| CCCCCCCC(=O)N[C@@H](C(=O)N[C@@H](CCN)C(=O)NCC(=O)N[C@H](CO)C(=O)N[C@H](Cc1c[nH]c2ccccc12)C(=O)N[C@@H](CO)C(=O)N[C@@H](CCN)C(=O)N[C@H](CCN)C(=O)N[C@@H](Cc1ccccc1)C(=O)N[C@@H](CCC(=O)O)C(=O)N[C@H](C(=O)N[C@@H](C(=O)N[C@@H](C)C(=O)O)C(C)C)C(C)C)C(C)C [compound 14, Oct-TriA2 (2-Dab)] (Octanoyl-[dV][Dab]G[dS][dW]S[Dab][dDab]FEV[dV]A-OH) | >50 µg/mL |  |  |  |
| CCCCCCCC(=O)N[C@@H](C(=O)N[C@H](CCN)C(=O)NCC(=O)N[C@H](CO)C(=O)N[C@H](Cc1c[nH]c2ccccc12)C(=O)N[C@@H](CO)C(=O)N[C@@H](CCN)C(=O)N[C@H](CCN)C(=O)NC(C)(Cc1ccccc1)C(=O)N[C@@H](CCC(=O)O)C(=O)N[C@H](C(=O)N[C@@H](C(=O)N[C@@H](C)C(=O)O)C(C)C)C(C)C)C(C)C (some centres unmarked) [compound 16, Oct-TriA2 (9-αMePhe)] | >50 µg/mL | 39% |  |  |
| CCCCCCCC(=O)N[C@@H](C(=O)N[C@H](CCN)C(=O)NCC(=O)N[C@H](CO)C(=O)N[C@H](Cc1c[nH]c2ccccc12)C(=O)N(C)CC(=O)N[C@@H](CCN)C(=O)N[C@H](CCN)C(=O)NC(C)(Cc1ccccc1)C(=O)N[C@@H](CCC(=O)O)C(=O)N[C@H](C(=O)N[C@@H](C(=O)N[C@@H](C)C(=O)O)C(C)C)C(C)C)C(C)C (some centres unmarked) [compound 23, Oct-TriA2 (6-Sar, 9-αMePhe)] | >50 µg/mL | 39% | 0% | >50 µg/mL |
| CCCCCCCC(=O)N[C@@H](C(=O)N[C@H](CCN)C(=O)NCC(=O)N[C@H](CO)C(=O)N[C@H](Cc1c[nH]c2ccccc12)C(=O)N(C)CC(=O)N[C@@H](CCN)C(=O)N[C@H](CCN)C(=O)NC(C)(Cc1ccccc1)C(=O)N[C@@H](CCC(=O)O)C(=O)N[C@H](C(=O)N[C@@H](C(=O)N[C@@H](C)C(=O)O)[C@@H](C)CC)C(C)C)C(C)C (some centres unmarked) [compound 25, Oct-TriA2 (6-Sar, 9-αMePhe)] | >50 µg/mL | 40% | 0% | >50 µg/mL |
